Measurements reported in patent US10023570B2 (Array BioPharma, Inc., priority 2015, dated 2018).
Structures can show the parent of a compound that is named as a salt.

Target: human KDR protein in HEK-293 cells (Homo sapiens (Human), UniProt P35968)
Assay: KDR Cell Assay (phospho-KDR in HEK-293 cells expressing inducible KDR)
Format: cell-based
Conditions: pKDR Cell HEK 10% FBS IC50, HEK-293 cells expressing inducible KDR, VEGF stimulated
Experimental: The cellular potency of a compound inhibiting KDR kinase was determined in HEK-293 cells expressing an inducible human KDR protein. […] The cells were incubated for 1 hour with test compound in DMEM at a final DMSO concentration of 0.25%. […] The media was aspirated and 35 μL of a 1× lysis buffer was added. […] The lysate was stored at −80° C. until ready for assay. Phospho-KDR was measured using a phospho-KDR kit (Catalog #K151BOC) purchased from Meso Scale Diagnostics (Rockville, Md.) according to the manufacturer's instructions. All values are expressed as percent of percent of control (POC). The POC values were fitted to a 4 parameter logistic curve fit and the IC50 value is point where the curve crosses 50 POC.

Chain of human KDR protein in HEK-293 cells (P35968 20-1356): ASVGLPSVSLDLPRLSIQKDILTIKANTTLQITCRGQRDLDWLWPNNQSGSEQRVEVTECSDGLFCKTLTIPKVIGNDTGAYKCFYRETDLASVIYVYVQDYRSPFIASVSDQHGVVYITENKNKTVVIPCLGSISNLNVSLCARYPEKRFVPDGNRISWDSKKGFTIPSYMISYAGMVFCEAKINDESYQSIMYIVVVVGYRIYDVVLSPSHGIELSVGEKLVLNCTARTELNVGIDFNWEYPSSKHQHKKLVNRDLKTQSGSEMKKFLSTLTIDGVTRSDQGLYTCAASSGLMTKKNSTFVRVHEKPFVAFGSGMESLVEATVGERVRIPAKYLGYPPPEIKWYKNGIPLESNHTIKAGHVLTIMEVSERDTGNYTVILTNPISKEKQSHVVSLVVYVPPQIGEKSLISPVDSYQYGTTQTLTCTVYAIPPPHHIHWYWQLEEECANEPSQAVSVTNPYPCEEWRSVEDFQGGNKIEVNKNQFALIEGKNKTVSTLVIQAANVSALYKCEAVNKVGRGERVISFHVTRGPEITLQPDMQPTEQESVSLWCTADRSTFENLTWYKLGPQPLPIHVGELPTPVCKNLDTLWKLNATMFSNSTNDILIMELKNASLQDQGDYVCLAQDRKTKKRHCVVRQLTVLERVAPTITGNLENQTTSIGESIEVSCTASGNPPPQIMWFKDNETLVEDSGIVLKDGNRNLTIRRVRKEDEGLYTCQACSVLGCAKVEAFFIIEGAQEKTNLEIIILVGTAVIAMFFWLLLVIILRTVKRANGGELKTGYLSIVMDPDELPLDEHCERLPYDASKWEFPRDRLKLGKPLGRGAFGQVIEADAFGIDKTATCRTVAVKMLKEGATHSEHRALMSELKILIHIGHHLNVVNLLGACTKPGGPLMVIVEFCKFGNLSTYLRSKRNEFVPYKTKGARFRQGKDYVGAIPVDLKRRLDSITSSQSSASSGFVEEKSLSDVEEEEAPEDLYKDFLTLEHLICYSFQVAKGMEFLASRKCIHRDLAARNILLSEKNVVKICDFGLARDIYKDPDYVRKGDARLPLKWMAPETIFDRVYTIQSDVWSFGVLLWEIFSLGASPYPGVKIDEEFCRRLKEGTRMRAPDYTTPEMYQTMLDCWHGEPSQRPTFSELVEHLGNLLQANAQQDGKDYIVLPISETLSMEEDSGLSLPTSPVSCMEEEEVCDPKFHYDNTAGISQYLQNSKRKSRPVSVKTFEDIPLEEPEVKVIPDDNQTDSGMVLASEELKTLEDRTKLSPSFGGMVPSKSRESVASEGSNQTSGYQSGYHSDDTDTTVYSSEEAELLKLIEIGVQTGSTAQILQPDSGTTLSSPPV

Row | Structure (SMILES) | IC50 (10% FBS) | IC50
1 | Cn1cc(-c2cc(-c3ccc(N4CCC(C(=O)NC5CC(F)(F)C5)CC4)nc3)c3c(C#N)cnn3c2)cn1 [Example 238, 1-(5-(3-cyano-6-(1-methyl-1H-pyrazol-4-yl)pyrazolo[1,5-a]pyridin-4-yl)pyridin-2-yl)-N-(3,3-difluorocyclobutyl) piperidine-4-carboxamide] | 420 nM | 
2 | Cn1cc(-c2cc(-c3ccc(N4CC5(CCCN5C(=O)OCc5ccccc5)C4)nc3)c3c(C#N)cnn3c2)cn1 [Example 525, benzyl 2-(5-(3-cyano-6-(1-methyl-1H-pyrazol-4-yl)pyrazolo[1,5-a]pyridin-4-yl)pyridin-2-yl)-2,5-diazaspiro[3.4]octane-5-carboxylate 2,2,2-trifluoroacetate] |  | 1580 nM
3 | CN(C)CC(=O)N1CC2CCC(C1)N2c1ccc(-c2cc(-c3cnn(C)c3)cn3ncc(Cl)c23)cn1 [Example 336, 1-(8-(5-(3-chloro-6-(1-methyl-1H-pyrazol-4-yl)pyrazolo[1,5-a]pyridin-4-yl)pyridin-2-yl)-3,8-diazabicyclo[3.2.1]octan-3-yl)-2-(dimethylamino)ethanone] | 614 nM | 
4 | Cn1cc(-c2cc(-c3ccc(N4CCN(CC5CC(F)(F)C5)CC4)nc3)c3c(C#N)cnn3c2)cn1 [Example 459, 4-(6-(4-((3,3-difluorocyclobutyl)methyl)piperazin-l-yl)pyridin-3-yl)-6-(1-methyl-1H-pyrazol-4-yl)pyrazolo[1,5-a]pyridine-3-carbonitrile] |  | ≥ 5000 nM
5 | Cn1cc(-c2cc(-c3ccc(N4CCC5(CCCN(C(=O)OC(C)(C)C)C5)CC4)nc3)c3c(C#N)cnn3c2)cn1 [Example 504, tert-Butyl 9-(5-(3-cyano-6-(1-methyl-1H-pyrazol-4-yl)pyrazolo[1,5-a]pyridin-4-yl)pyridine-2-yl)-2,9-diazaspiro[5.5]undecane-2-carboxylate] |  | 2070 nM

Further lines, results first:

Row | IC50 (10% FBS) | IC50 | Structure (SMILES)
6 | 532 nM |  | Cn1cc(-c2cc(-c3ccc(N4CCN(C(=O)CO)CC4)cc3)c3c(C#N)cnn3c2)cn1 [Example 293, 4-(4-(4-(2-hydroxyacetyl)piperazin-1-yl)phenyl)-6-(1-methyl-1H-pyrazol-4-yl)pyrazolo[1,5-a]pyridine-3-carbonitrile hydrochloride]
7 | 73.6 nM |  | Cn1cc(-c2cc(-c3ccc(N4CCN(CC(O)c5ccc(F)cc5)CC4)nc3)c3c(C#N)cnn3c2)cn1 (centres unmarked) [Example 164, 4-(6-(4-(2-(4-fluorophenyl)-2-hydroxyethyl)piperazin-1-yl)pyridin-3-yl)-6-(1-methyl-1H-pyrazol-4-yl)pyrazolo[1,5-a]pyridine-3-carbonitrile]
8 | 289 nM |  | Cn1cc(-c2cc(-c3ccc(N4CCN(Cc5ccccc5)CC4)nc3)c3c(C#N)cnn3c2)cn1 [Example 139, 4-(6-(4-benzylpiperazin-1-yl)pyridin-3-yl)-6-(1-methyl-1H-pyrazol-4-yl)pyrazolo[1,5-a]pyridine-3-carbonitrile]
9 |  | 916 nM | Cn1cc(-c2cc(-c3ccc(N4CCN(Cc5ccc(Cl)cc5)CC4)nc3)c3c(C#N)cnn3c2)cn1 [Example 425, 4-(6-(4-(4-chlorobenzyl)piperazin-l-yl)pyridin-3-yl)-6-(1-methyl-1H-pyrazol-4-yl)pyrazolo[1,5-a]pyridine-3-carbonitrile]
10 | 979 nM |  | Cn1cc(-c2cc(-c3ccc(N4CCN([C@@H]5CCCC[C@H]5O)CC4)nc3)c3c(C#N)cnn3c2)cn1 [Example 155, 4-(6-(4-((1r,2r)-2-hydroxycyclohexyl)piperazin-1-yl)pyridin-3-yl)-6-(1-methyl-1H-pyrazol-4-yl)pyrazolo[1,5-a]pyridine-3-carbonitrile]
11 | 1940 nM |  | Cn1cc(-c2cc(-c3cnc(N4CCN(C(=O)[C@H](O)c5ccccc5)CC4)cn3)c3c(C#N)cnn3c2)cn1 [Example 288, (R)-4-(5-(4-(2-hydroxy-2-phenylacetyl)piperazin-1-yl)pyrazin-2-yl)-6-(1-methyl-1H-pyrazol-4-yl)pyrazolo[1,5-a]pyridine-3-carbonitrile]
